In patent publication US9828350B2, “5,6-dihydro-2H-[1,4]oxazin-3-yl-amine derivatives useful as inhibitors of beta-secretase (BACE)” (Janssen Pharmaceutica NV, priority 2010, dated 2017):

Test system: Aβtotal
Experiment: Demonstration of in vivo efficacy, brain Aβtotal lowering (ELISA)
Conditions: mouse brain, 30 mpk, s.c., 4 h

For `C[C@]1(c2cccc(NC(=O)c3ccc(Cl)cn3)c2)N=C(N)CO[C@@H]1F` (single isomer, unassigned) [Compound 86, (R*,R*)—N-[3-(5-amino-2-fluoro-3-methyl-3,6-dihydro-2H-1,4-oxazin-3-yl)phenyl]-5-chloropyridine-2-carboxamide], the “Aβtotal (% Ctrl)_Mean” value was 55 % Ctrl.
